A short description of series [1]: Stability at ordinary temperature, under cooking conditions and in solution. The format is physicochemical. The following applies: for stability under cooking conditions: cooking conditions of 180° C. or lower. The source says: The agent, pharmaceutical composition, or nutritional composition of the present invention can be produced by using various known techniques. The step of adjusting concentration of the active ingredient to a predetermined concentration may be performed in various stages of the manufacturing process. Those skilled in the art can appropriately design the steps for producing the agent of the present invention in consideration of solubility, stability, volatility, etc. of the active ingredient. […] It was also confirmed that they can be stably stored over at least 2 years and 9 months in a state of solution.

The conditions of series [2]: cited from earlier work.
For the next series, the system named is GABA transporters. Nature of the series: Microarray analysis of GABA transporter genes in Alzheimer disease model mice. It counts as in vivo, mouse. The note with it: carnosine administration group vs Alzheimer model. Here is the method:
(§1) High fat diet (HFD) was given to transgenic mice (Alzheimer disease model mice) to induce cerebral hypofunction. Carnosine (L-histidine-β-alanine) was administered to the mice, and influence of carnosine was evaluated.
(§2) Suppression of cerebral inflammation in the carnosine administration group was also shown by the results of MRI test (FIG. 8-2, red portions). The results of the microarray analysis indicated increase of expressions of GABA transporters such as 7Slc6a12 and slc6a13 observed in the Alzheimer model was suppressed in the carnosine administration group (FIG. 8-3).

The subject of series [3] is transgenic mice (Alzheimer disease model mice). Nature of the series: Intracerebral inflammatory reaction by MRI in Alzheimer disease model mice. The format is in vivo, mouse. The following applies: carnosine administration group, high fat diet transgenic mice. Here is the method:
as §1, §2

For series [4] the test system is unchanged. As to the kind of experiment: Blood cytokines in high fat diet Alzheimer disease model mice. The format is in vivo, mouse. The following applies: carnosine-containing diet group. Here is the method:
as §1, §2

The test system is the same in series [5]. As to the kind of experiment: Blood insulin concentration in Alzheimer disease model mice. The format is in vivo, mouse. The note with it: mice starved overnight; high fat diet-induced Alzheimer disease; p<0.05. As for the experimental part:
as §1
Blood was collected from mice starved overnight, and blood insulin concentration was determined with a kit (Morinaga).

The structures appear in SMILES notation.

As to `Cn1cncc1C[C@H](NC(=O)CCN)C(=O)O` [anserine, (2S)-2-[(3-amino-1-oxopropyl)amino]-3-(3-methyl-4-imidazolyl)ppropanoic acid], in series [1], the “stability under cooking conditions” value is reported as “sufficiently stable” and the “stability at an ordinary temperature” value is given as “sufficiently stable”. The “water solubility (in words)” value in series [2] was “water-soluble”.

Consider `NCCC(=O)N[C@@H](Cc1cnc[nH]1)C(=O)O` [carnosine], for which, in series [1], the “stability under cooking conditions” value is “sufficiently stable” and the “stability at an ordinary temperature” value is recorded as “sufficiently stable”. Further, in the series with GABA transporters, the “increase of expression of GABA transporter 7Slc6a12” value was “suppressed” and the “increase of expression of GABA transporter slc6a13” value is given as “suppressed”. The “cerebral inflammation (MRI test)” value in series [3] is recorded as “Suppression”. Also, the blood cytokines result in series [4] is given as “decreased”. Moreover, the “increase of the blood insulin concentration” value in series [5] was “suppressed”. For the same molecule, the water solubility in series [2] (at 25° C.) was 1 g/3.1 ml. Moreover, in series [2], the “water solubility (in words)” value is listed as “water-soluble”.

(Values after patent US20180140655A1, “AGENT CONTAINING IMIDAZOLE DIPEPTIDE” (THE UNIVERSITY OF TOKYO, priority 2014, published 2018).)
